Values quoted from earlier work in patent publication US8211469B2, “Use of block copolymers based on vinyllactams and vinyl acetate as solubilizers” (priority 2006, dated 2012).

Details: 20° C.

In the case of Fc1ccc([C@]2(Cn3cncn3)O[C@H]2c2ccccc2Cl)cc1 (racemic) [Epoxyconazole], the Solubility in water is given as 6.63*10^−4 g/100 ml.
